IC50 data for 15 compounds are collected here from paper PMC6540907, “The nuclear export inhibitor aminoratjadone is a potent effector in extracellular-targeted drug conjugates” (Chemical Science, 2019).

One experiment has as its system KB-3.1. In words: cells. The class given is cell-based, human. As for the experimental part:
(§1) Biological evaluation of the compounds […]
(§2) serial dilutions of the test compound were given to 120 µL of suspended cells (50.000/mL) in wells of 96-well plates. After 5 days of incubation growth inhibition (IC50) was determined using an MTT assay.9
(§3) Table S1:Medium conditions for different cell types.
(§4) Cell type Medium Additives
(§5) L-929 (DSMZ ACC 2) DME medium (high glucose) (Gibco) 10% fetal calf serum (Gibco) SKOV-3 DSMZ ATCC HTB Mc Coys-Medium (Gibco) 10% fetal calf serum (Gibco) […]
(§6) A549 (DSMZ ACC 107) DME medium (high glucose) (Gibco) 10% fetal calf serum (Gibco)

The subject of a further experiment is A-549. In words: cells. The class given is cell-based, human. As for the experimental part:
as §1, §2, §3, §4, §5, §6

A further experiment deals with SK-OV-3. In words: cells. Type of experiment: cell-based, human. To be noted: Homo sapiens, SK-OV-3, read-out: Antiproliferative activity IC50. Here is the method: as §1, §2, §3, §4, §5, §6
A further experiment deals with MCF-7. Description: cells. The class given is cell-based, human. Here is the method: as §1, §2, §3, §4, §5, §6
For another experiment, the target named is CRM1 (Homo sapiens, UniProt O14980). In words: Nuclear export inhibition, fluorescent translocation biosensor in recombinant HeLa cells. Type of experiment: cell-based. Set-up: This cellular assay uses HeLa cells that express a recombinant fusion protein; endogenous in cells; host or cells: HeLa cells stably expressing the NLS-GST-GFP-RevNES translocation biosensor (HeLaRevBio). To be noted: nuclear export inhibition IC50, HeLa cells expressing translocation biosensor, 1 h incubation.
Sequence of CRM1 (O14980 whole entry, the tested form may be a part): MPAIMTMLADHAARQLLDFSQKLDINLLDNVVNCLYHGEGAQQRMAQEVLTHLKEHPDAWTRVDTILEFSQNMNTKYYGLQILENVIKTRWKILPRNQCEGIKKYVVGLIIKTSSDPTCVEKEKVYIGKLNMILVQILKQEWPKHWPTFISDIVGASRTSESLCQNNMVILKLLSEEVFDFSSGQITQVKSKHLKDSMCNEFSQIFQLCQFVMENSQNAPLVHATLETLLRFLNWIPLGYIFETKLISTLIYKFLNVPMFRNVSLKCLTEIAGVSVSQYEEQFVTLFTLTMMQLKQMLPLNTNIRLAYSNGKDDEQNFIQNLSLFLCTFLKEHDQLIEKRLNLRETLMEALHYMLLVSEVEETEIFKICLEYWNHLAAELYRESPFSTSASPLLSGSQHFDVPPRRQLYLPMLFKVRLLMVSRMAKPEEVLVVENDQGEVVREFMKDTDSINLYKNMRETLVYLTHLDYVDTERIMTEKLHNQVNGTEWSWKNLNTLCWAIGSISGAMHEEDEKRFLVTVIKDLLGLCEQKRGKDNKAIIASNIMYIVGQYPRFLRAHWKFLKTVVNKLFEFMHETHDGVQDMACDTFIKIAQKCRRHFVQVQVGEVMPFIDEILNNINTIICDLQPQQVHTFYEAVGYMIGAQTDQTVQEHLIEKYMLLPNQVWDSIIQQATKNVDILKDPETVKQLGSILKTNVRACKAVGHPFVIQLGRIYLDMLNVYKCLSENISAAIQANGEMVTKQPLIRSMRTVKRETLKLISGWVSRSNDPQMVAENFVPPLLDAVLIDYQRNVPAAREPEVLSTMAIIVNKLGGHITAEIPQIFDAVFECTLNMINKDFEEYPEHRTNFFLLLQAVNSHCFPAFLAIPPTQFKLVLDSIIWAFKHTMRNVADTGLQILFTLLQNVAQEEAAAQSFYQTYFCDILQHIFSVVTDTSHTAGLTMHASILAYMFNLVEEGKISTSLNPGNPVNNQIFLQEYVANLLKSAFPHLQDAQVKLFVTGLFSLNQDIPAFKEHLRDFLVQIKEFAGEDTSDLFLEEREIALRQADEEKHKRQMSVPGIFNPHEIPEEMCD

The next experiment deals with L-929. In words: Cell proliferation assay (MTT, 5 days). Type of experiment: cell-based, murine. Here is the method:
as §1, §2, §3, §4, §5
A549 (DSMZ ACC 107) DME medium (high glucose) (Gibco) 10% fetal calf serum (Gibco) KB 3.1 (DSMZ ACC 158) DME medium (high glucose) (Gibco) 10% fetal calf serum (Gibco) Ratjadone Compound Antiproliferative activity IC50 [nM]
KB-3.1: human cervix carcinoma, KB-V1: multi-drug-resistant human cervix carcinoma, K-562: human chronic myelogenous leukemia cell, PC-3: human prostate carcinoma, L-929: murine fibroblast
Figure S8: Structures of Ratjadone A-D and their antiproliferative activity (IC50 values in nM). Data published by Köster et al.10

For another experiment, the system named is KB-3.1 cancer cells. Description: Cell proliferation assay under folate free conditions (MTT). The class given is cell-based, human. To be noted: KB-3.1, folate receptor-positive, read-out: Antiproliferative activity IC50 of folate-ratjadone conjugates. Here is the method:
Cell proliferation assay under folate free conditions
KB 3.1 (DSMZ ACC 158) cells were cultivated at 37 °C and 10 % CO2 in RMPI-medium without folic acid (Gibco) with 10% fetal calf serum (Gibco). 120 µL of suspended cells (100.000/mL) were seeded in wells of 96-well plates and after 24 h at 37 °C and 10 % CO2 the medium was removed, the cells were washed with PBS and RPMI-medium without folic acid (Gibco) + 10% dialyzed fetal calf serum (Sigma) were added to the cells, before after additional 24 h at 37°C and 10 % CO2 60 µL of serial dilutions of the test compound were given to cells. After 1, 2 and 5 days of incubation growth inhibition (IC50) was determined using an […]

[1] abbreviates: Homo sapiens, KB 3-1, read-out: Antiproliferative activity IC50, KB-3.1 human cervix carcinoma.
The mark [2] stands for this setting: Homo sapiens, A549, read-out: Antiproliferative activity IC50, A-549 human lung carcinoma.
Setting [3] is: Homo sapiens, MCF7, read-out: Antiproliferative activity IC50, MCF-7 human breast carcinoma.
Setting [4] is: Mus musculus, L929, read-out: Antiproliferative activity IC50, L-929 murine fibroblast.
The mark [5] stands for this setting: KB 3-1, KB-3.1 human cervix carcinoma, read-out: Antiproliferative activity IC50.
Setting [6] is: L-929 murine fibroblast, read-out: Antiproliferative activity IC50.
Where [7] appears, read: Mus musculus, L929, L-929 murine fibroblast, read-out: Antiproliferative activity IC50.

“And” between values parts separate entries of the source, which are not always exact repeats. Identical values can stand only once. Like-named read-outs stand apart in the source and are kept apart here.

With `C/C=C/[C@@H]1O[C@H](C(=O)/C=C/C=C(\C)C[C@@H](C)/C=C(C)\C=C\[C@H]2CC=CC(=O)O2)C[C@@H](O)[C@@H]1C` [Compound 13, 16-oxoratjadone], the IC50 (usually the concentration that gives 50% inhibition) turned out to be 2.57 nM in the experiment on KB-3.1 (setting [1]); 1.76 nM with A-549 (setting [2]); 0.24 nM in the experiment on SK-OV-3; 0.22 nM in the experiment with MCF-7 (setting [3]); 52.5 nM at CRM1; 12.6 nM with L-929 (setting [4]). For the same compound, in the experiment on L-929 (read-out: Antiproliferative activity IC50, L-929 murine fibroblast), the IC50 is 12.6 nM.
As to `C/C=C/[C@@H]1O[C@H]([C@H](O)/C=C/C=C(\C)C[C@@H](C)/C=C(C)\C=C\[C@H]2CC=CC(=O)O2)CC(=O)[C@@H]1C` [Compound 14, 19-oxoratjadone], the IC50 was 0.36 nM in the experiment on KB-3.1 (setting [1]); 0.1 nM in the experiment on A-549 (setting [2]); 0.16 nM in the experiment on SK-OV-3; 0.48 nM in the experiment on MCF-7 (setting [3]); 13.3 nM on CRM1; 1.15 nM in the experiment on L-929 (setting [4]).
As for `C/C=C/[C@@H]1O[C@H](C(=O)/C=C/C=C(\C)C[C@@H](C)/C=C(C)\C=C\[C@H]2CC=CC(=O)O2)CC(=O)[C@@H]1C` [Compound 15, 16,19-dioxoratjadone], the IC50 was found to be 3.98 nM with KB-3.1 (setting [1]); 9.72 nM in the experiment with A-549 (setting [2]); 1.59 nM in the experiment on SK-OV-3; 2.87 nM in the experiment with MCF-7 (setting [3]); 17.5 nM at CRM1; 24.3 nM in the experiment with L-929 (setting [4]).
In the case of `C/C=C/[C@@H]1O[C@H]([C@H](N)/C=C/C=C(\C)C[C@@H](C)/C=C(C)\C=C\[C@H](O)CC(N)CC(=O)OC)C[C@@H](O)[C@@H]1C` (stereo partly drawn) [Compound 18], the figures for the IC50 in the experiment on KB-3.1 (setting [5]), in the experiment with L-929 (setting [6]) and in the experiment with L-929 (setting [7]) were 116 nM, 3310 nM and 3310 nM, respectively.
`C/C=C/[C@@H]1O[C@H]([C@@H](N)/C=C/C=C(\C)C[C@@H](C)/C=C(C)\C=C\[C@H](O)CC(N)CC(=O)OC)C[C@@H](O)[C@@H]1C` (stereo partly drawn) [Compound 19]: the IC50 stood at 165 nM in the experiment on KB-3.1 (setting [5]), 1320 nM with L-929 (setting [6]) and 1320 nM in the experiment with L-929 (setting [7]).
On to `C#CCCC(=O)N[C@H](/C=C/C=C(\C)C[C@@H](C)/C=C(C)\C=C\[C@H]1CC=CC(=O)O1)[C@@H]1C[C@@H](O)[C@H](C)[C@H](/C=C/C)O1` [Compound 20], for which the IC50 with KB-3.1 (setting [1]) is 1.05 nM; with A-549 (setting [2]), 0.58 nM; with SK-OV-3, 0.44 nM; with MCF-7 (setting [3]) it was 0.4 nM; at CRM1 it was 23.2 nM.
In the same order, the values of `C#CCCOC(=O)N[C@@H](/C=C/C=C(\C)C[C@@H](C)/C=C(C)\C=C\[C@H]1CC=CC(=O)O1)[C@@H]1C[C@@H](O)[C@H](C)[C@H](/C=C/C)O1` [Compound 22] are 1.23 nM, 2.45 nM, 1.2 nM, 0.62 nM and 12 nM.
`CC=CC1OC(C(C=CC=C(C)CC(C)C=C(C)C=CC2CC=CC(=O)O2)NC(=O)OCc2ccc(NC(=O)C(CCCNC(N)=O)NC(=O)C(NC(=O)OCC3C4CCC#CCCC43)C(C)C)cc2)CC(O)C1C` (stereo not drawn) [Compound 25, BCN-O(CO)HN-Val-Cit-pABO(CO)-16R-Aminoratjadone]: the IC50 amounted to 25.1 nM with KB-3.1 (setting [1]); 25.1 nM in the experiment on KB-3.1 (read-out: Antiproliferative activity IC50, KB-3.1 human cervix carcinoma); 39.5 nM in the experiment with A-549 (setting [2]); 39.5 nM with A-549 (read-out: Antiproliferative activity IC50, A-549 human lung carcinoma); 34.7 nM in the experiment with SK-OV-3; 20.2 nM in the experiment with MCF-7 (setting [3]). Further, the IC50 with MCF-7 (read-out: Antiproliferative activity IC50, MCF-7 human breast carcinoma) was 20.2 nM; on CRM1, 246 nM and 346 nM.
Regarding `C/C=C/[C@@H]1O[C@H]([C@@H](/C=C/C=C(\C)C[C@@H](C)/C=C(C)\C=C\[C@H]2CC=CC(=O)O2)NC(=O)CCSSc2ccccn2)C[C@@H](O)[C@@H]1C` [Compound 31, 2-PySS(CH2)2(CO)-16R-Aminoratjadone], the IC50 with KB-3.1 (setting [1]) was 8.8 nM; in the experiment on A-549 (setting [2]), 30.6 nM; with SK-OV-3 it was 24.6 nM; with MCF-7 (setting [3]) it was 26 nM; at CRM1 it was 44.1 nM.
In the same order, the values of `C/C=C/[C@@H]1O[C@H]([C@H](O)/C=C/C=C(\C)C[C@@H](C)/C=C(C)\C=C\[C@H]2CC=CC(=O)O2)CC(N)[C@@H]1C` (stereo partly drawn) [Compound 33, 19-aminoratjadone] are 6.67 nM, 4.39 nM, 1.4 nM, 2.1 nM and 70 nM.
Turning to `C#CCNC1C[C@@H]([C@H](O)/C=C/C=C(\C)C[C@@H](C)/C=C(C)\C=C\[C@H]2CC=CC(=O)O2)O[C@@H](/C=C/C)[C@H]1C` (stereo partly drawn) [Compound 35, N-Propargyl-19-aminoratjadone], the IC50 in the experiment with KB-3.1 (setting [1]) stood at 1.23 nM; with A-549 (setting [2]), 1.12 nM; with SK-OV-3, 2.63 nM; in the experiment with MCF-7 (setting [3]) it was 1.31 nM; at CRM1 it was 18.3 nM.
As for `C/C=C/[C@@H]1O[C@H]([C@@H](/C=C/C=C(\C)C[C@@H](C)/C=C(C)\C=C\[C@H]2CC=CC(=O)O2)NC(=O)OCc2ccc(NC(=O)[C@H](CCCNC(N)=O)NC(=O)[C@@H](NC(=O)OC[C@@H]3[C@@H]4CCc5nnn(CCC[C@H](NC(=O)CC[C@H](NC(=O)c6ccc(NCc7cnc8nc(N)nc(O)c8n7)cc6)C(=O)O)C(=O)N[C@H](CCCCN)C(=O)O)c5CC[C@@H]43)C(C)C)cc2)C[C@@H](O)[C@@H]1C` [FA-9-Val-Cit-pABA-16R-aminoratjadone], the IC50 with KB-3.1 cancer cells amounted to 50.9 nM.
The same measure, in the same setting: for `C/C=C/[C@@H]1O[C@H]([C@@H](/C=C/C=C(\C)C[C@@H](C)/C=C(C)\C=C\[C@H]2CC=CC(=O)O2)NC(=O)OCc2ccc(NC(=O)[C@H](CCCNC(N)=O)NC(=O)[C@@H](NC(=O)OCC3C4CCc5nnn(CCC[C@H](NC(=O)[C@@H](CC(=O)O)NC(=O)[C@@H](CC(=O)O)NC(=O)[C@@H](CC(=O)O)NC(=O)CC[C@H](NC(=O)c6ccc(NCc7cnc8nc(N)nc(O)c8n7)cc6)C(=O)O)C(=O)N[C@H](CC(=O)O)C(=O)N[C@H](CC(=O)O)C(=O)N[C@H](CCCCN)C(=O)O)c5CCC43)C(C)C)cc2)C[C@@H](O)[C@@H]1C` (stereo partly drawn) [FA-10-Val-Cit-pABA-16R-aminoratjadone] the value was 35.3 nM; for `C/C=C/[C@@H]1O[C@H]([C@@H](/C=C/C=C(\C)C[C@@H](C)/C=C(C)\C=C\[C@H]2CC=CC(=O)O2)NC(=O)OCc2ccc(NC(=O)[C@H](CCCNC(N)=O)NC(=O)[C@@H](NC(=O)OCC3C4CCc5nnn(CCC[C@H](NC(=O)[C@@H](CC(=O)O)NC(=O)[C@@H](CC(=O)O)NC(=O)[C@H](CCCn6nnc7c6CCC6C(CC7)C6COC(=O)N[C@H](C(=O)N[C@@H](CCCNC(N)=O)C(=O)Nc6ccc(COC(=O)N[C@H](/C=C/C=C(\C)C[C@@H](C)/C=C(C)\C=C\[C@H]7CC=CC(=O)O7)[C@@H]7C[C@@H](O)[C@H](C)[C@H](/C=C/C)O7)cc6)C(C)C)NC(=O)[C@@H](CC(=O)O)NC(=O)[C@@H](CC(=O)O)NC(=O)[C@H](CCCn6nnc7c6CCC6C(CC7)C6COC(=O)N[C@H](C(=O)N[C@@H](CCCNC(N)=O)C(=O)Nc6ccc(COC(=O)N[C@H](/C=C/C=C(\C)C[C@@H](C)/C=C(C)\C=C\[C@H]7CC=CC(=O)O7)[C@@H]7C[C@@H](O)[C@H](C)[C@H](/C=C/C)O7)cc6)C(C)C)NC(=O)[C@@H](CC(=O)O)NC(=O)[C@@H](CC(=O)O)NC(=O)CC[C@H](NC(=O)c6ccc(NCc7cnc8nc(N)nc(O)c8n7)cc6)C(=O)O)C(=O)O)c5CCC43)C(C)C)cc2)C[C@@H](O)[C@@H]1C` (stereo partly drawn) [FA-11-(Val-Cit-pABA-16R-aminoratjadone)3], 45 nM.
Take `C/C=C/[C@@H]1O[C@H]([C@@H](/C=C/C=C(\C)C[C@@H](C)/C=C(C)\C=C\[C@H]2CC=CC(=O)O2)NC(=O)CCSSC[C@H](NC(=O)CC[C@H](NC(=O)c2ccc(NCc3cnc4nc(N)nc(O)c4n3)cc2)C(=O)O)C(=O)O)C[C@@H](O)[C@@H]1C` [FA-SS-16R-aminoratjadone]: the IC50 with KB-3.1 cancer cells (listed as FA-SS-16R-Aminoratjadone) and with KB-3.1 cancer cells was 295 nM in each case.
